Patent publication US8088930B2, “Benzimidazole derivatives” (Hoffmann-La Roche Inc., priority 2008, dated 2012)

Target: T1, FXR ligand binding domain (GST-FXR LBD fusion protein, human FXR aa 193-473) (Homo sapiens, UniProt Q96RI1)
T1 construct: fused on or other part: Glutathione-S-transferase (GST) fused N-terminally to the FXR LBD, used to capture the protein on glutathione SPA beads
T1 sequence (Q96RI1 211-486 limits assumed): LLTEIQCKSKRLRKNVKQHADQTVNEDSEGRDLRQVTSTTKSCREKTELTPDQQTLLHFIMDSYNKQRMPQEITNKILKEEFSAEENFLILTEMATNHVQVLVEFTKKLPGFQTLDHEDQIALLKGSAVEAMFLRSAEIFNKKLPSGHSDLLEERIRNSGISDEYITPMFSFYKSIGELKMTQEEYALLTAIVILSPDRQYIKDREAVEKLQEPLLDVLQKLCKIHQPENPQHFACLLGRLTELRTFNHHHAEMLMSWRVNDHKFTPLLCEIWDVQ
Assay: Radioligand binding assay (scintillation proximity, radioligand displacement)
Conditions: 40 nM GST-FXR LBD on SPA beads, test compound 6×10^−9 M to 2.5×10^−5 M, read-out: h-IC50 Binding
Method: The following tests were carried out in order to determine the activity of the compounds of formula (I).
To accomplish this, the portions of the sequences encoding the FXR LBD were amplified by polymerase chain reaction (PCR) from a full-length clone by PCR and then subcloned into the plasmid vectors. The final clone was verified by DNA sequence analysis.
The induction, expression, and subsequent purification of GST-LBD fusion protein was performed in E. coli strain BL21(pLysS) cells by standard methods (Current Protocols in Molecular Biology, Wiley Press, ed. Ausubel et al.).
Radioligand Binding Assay
Binding of test substances to the FXR ligand binding domain was assessed in a radioligand displacement assay. The assay was performed in a buffer consisting of 50 mM Hepes, pH 7.4, 10 mM NaCl, 5 mM MgCl2, 0.01% CHAPS. For each reaction well in a 96-well plate, 40 nM of GST-FXR LBD fusion protein was bound to 10 μg glutathione yttrium silicate SPA beads (Pharmacia Amersham) in a final volume of 50 μl by shaking. A radioligand (e.g., 20 nM of 2,N-dicyclohexyl-2-[2-(2,4 dimethoxy-phenyl)-benzoimidazol-1-yl]-acetamide) and test compounds were added, and scintillation proximity counting was performed. All binding assays were performed in 96-well plates and the amount of bound ligand was measured on a Packard TopCount using OptiPlates (Packard).

First: O=C(O)C1(Oc2ccc(OCC(C3CCCCC3)n3c(-c4ccc(Cl)cc4)nc4cc(F)c(F)cc43)nc2)CC1 (single isomer, unassigned; (-)) [Example 51, (−)-1-(6-{2-[2-(4-Chloro-phenyl)-5,6-difluoro-benzoimidazol-1-yl]-2-cyclohexyl-ethoxy}-pyridin-3-yloxy)-cyclopropanecarboxylic acid]
Second: O=C(O)C1(Oc2ccc(OCC(C3CCCCC3)n3c(-c4ccc(Cl)cc4)nc4cc(F)c(F)cc43)cc2)CC1 (single isomer, unassigned; (-)) [Example 121, (−)-1-(4-{2-[2-(4-Chloro-phenyl)-5,6-difluoro-benzoimidazol-1-yl]-2-cyclohexyl-ethoxy}-phenoxy)-cyclopropanecarboxylic acid]
The IC50 of the first is 15-fold higher: 300 nM for the first, 20 nM for the second.

`Cc1cc(C(=O)O)cc(C)c1OCC(C1CCCCC1)n1c(-c2ccc(Cl)cc2)nc2cc(F)c(F)cc21` (single isomer, unassigned; (-)) [Example 55, (−)-4-{2-[2-(4-Chloro-phenyl)-5,6-difluoro-benzoimidazol-1-yl]-2-cyclohexyl-ethoxy}-3,5-dimethyl-benzoic acid] and `O=C(O)c1cc(F)c(OCC(C2CCCCC2)n2c(-c3ccc(Cl)cc3)nc3cc(F)c(F)cc32)c(Cl)c1` (single isomer, unassigned; (-)) [Example 77, (−)-3-Chloro-4-{2-[2-(4-chloro-phenyl)-5,6-difluoro-benzoimidazol-1-yl]-2-cyclohexyl-ethoxy}-5-fluoro-benzoic acid] are within 1.5-fold of each other in IC50: 4 nM for the first, 3 nM for the second.

First: Fc1cc2nc(-c3ccc(Cl)cc3)n(C(COc3ccc(-c4nnn[nH]4)cn3)C3CCCCC3)c2cc1F (single isomer, unassigned; (-)) [Example 63, (−)-2-(4-Chloro-phenyl)-1-{1-cyclohexyl-2-[5-(1H-tetrazol-5-yl)-pyridin-2-yloxy]-ethyl}-5,6-difluoro-1H-benzoimidazole]
Second: Fc1cc2nc(-c3ccc(Cl)cc3)n(C(COc3ccc(-c4nnn[nH]4)cc3F)C3CCCCC3)c2cc1F (single isomer, unassigned; (-)) [Example 81, (−)-2-(4-Chloro-phenyl)-1-{1-cyclohexyl-2-[2-fluoro-4-(1H-tetrazol-5-yl)-phenoxy]-ethyl}-5,6-difluoro-1H-benzoimidazole]
The IC50 of the first is 9-fold higher: 90 nM for the first, 10 nM for the second. The second is the more potent here.

Going from `O=C(O)c1ccc(COCC(C2CCCCC2)n2c(-c3ccc(Cl)cc3)nc3cc(F)c(F)cc32)c(F)c1` (single isomer, unassigned; (-)) [Example 65, (−)-4-{2-[2-(4-Chloro-phenyl)-5,6-difluoro-benzoimidazol-1-yl]-2-cyclohexyl-ethoxymethyl}-3-fluoro-benzoic] to `O=C(O)c1ccc(COCC(C2CCCCC2)n2c(-c3ccc(Cl)cc3)nc3cc(F)c(F)cc32)cc1` (single isomer, unassigned; (-)) [Example 68, (−)-4-{2-[2-(4-Chloro-phenyl)-5,6-difluoro-benzoimidazol-1-yl]-2-cyclohexyl-ethoxymethyl}-benzoic acid], the IC50 falls from 200 nM to 60 nM (3.3-fold). The second is the more potent here.

Going from `Cc1cc(-c2nnn[nH]2)cc(C)c1OCC(C1CCCCC1)n1c(-c2ccc(Cl)cc2)nc2cc(F)c(F)cc21` (single isomer, unassigned; (-)) [Example 71, (−)-2-(4-Chloro-phenyl)-1-{1-cyclohexyl-2-[2,6-dimethyl-4-(1H-tetrazol-5-yl)-phenoxy]-ethyl}-5,6-difluoro-1H-benzoimidazole] to `Cc1cc(-c2nnn[nH]2)cc(C)c1OCC(C1CCCCC1)n1c(-c2ccc(Cl)cc2)nc2ccccc21` (single isomer, unassigned; (-)) [Example 112, (−)-2-(4-Chloro-phenyl)-1-{1-cyclohexyl-2-[2,6-dimethyl-4-(1H-tetrazol-5-yl)-phenoxy]-ethyl}-1H-benzoimidazole], the IC50 rises from 60 nM to 110 nM (1.8-fold). The first is the more potent here.

First: COc1ccc(-c2nc3cc(F)c(F)cc3n2C(COc2ccc(C(=O)O)cn2)C2CCCCC2)c(OC)n1 (single isomer, unassigned; (-)) [Example 75, (−)-6-{2-Cyclohexyl-2-[2-(2,6-dimethoxy-pyridin-3-yl)-5,6-difluoro-benzoimidazol-1-yl]-ethoxy}-nicotinic acid]
Second: COc1ccc(-c2nc3cc(F)c(F)cc3n2C(COc2c(F)cc(C(=O)O)cc2F)C2CCCCC2)c(OC)n1 (single isomer, unassigned; (-)) [Example 98, (−)-4-{2-Cyclohexyl-2-[2-(2,6-dimethoxy-pyridin-3-yl)-5,6-difluoro-benzoimidazol-1-yl]-ethoxy}-3,5-difluoro-benzoic acid]
The IC50 of the first is 90-fold higher: 90 nM for the first, 1 nM for the second. The second is the more potent here.

Compared with `O=C(O)c1cc(F)c(OCC(C2CCCCC2)n2c(-c3ccc(Cl)cc3)nc3cc(F)c(F)cc32)c(F)c1` (single isomer, unassigned; (-)) [Example 86, (−)-4-{2-[2-(4-Chloro-phenyl)-5,6-difluoro-benzoimidazol-1-yl]-2-cyclohexyl-ethoxy}-3,5-difluoro-benzoic acid], `O=C(O)c1cc(F)c(OCC(C2CCCCC2)n2c(-c3ccc(Cl)cc3)nc3ccccc32)c(F)c1` (single isomer, unassigned; (-)) [Example 104, (−)-4-{2-[2-(4-Chloro-phenyl)-benzoimidazol-1-yl]-2-cyclohexyl-ethoxy}-3,5-difluoro-benzoic acid] is 17-fold higher in IC50: 3 nM for the first, 50 nM for the second. The first is the more potent here.

Going from `CC(C)(Oc1ccc(-c2nnn[nH]2)cc1)C(C1CCCCC1)n1c(-c2ccc(Cl)cc2)nc2cc(F)c(F)cc21` (single isomer, unassigned; (-)) [Example 88, (−)-2-(4-Chloro-phenyl)-1-{1-cyclohexyl-2-methyl-2-[4-(1H-tetrazol-5-yl)-phenoxy]-propyl}-5,6-difluoro-1H-benzoimidazole] to `CC(C)(Oc1ccc(C(=O)O)cc1)C(C1CCCCC1)n1c(-c2ccc(Cl)cc2)nc2cc(F)c(F)cc21` (single isomer, unassigned; (-)) [Example 89, (−)-4-{2-[2-(4-Chloro-phenyl)-5,6-difluoro-benzoimidazol-1-yl]-2-cyclohexyl-1,1-dimethyl-ethoxy}-benzoic acid], the IC50 rises from 3 nM to 10 nM (3.3-fold). The first is the more potent here.

Going from `COc1ccc(-c2nc3cc(F)c(F)cc3n2C(COc2c(C)cc(-c3nnn[nH]3)cc2C)C2CCCCC2)c(OC)n1` (single isomer, unassigned; (-)) [Example 101, (−)-1-{1-Cyclohexyl-2-[2,6-dimethyl-4-(1H-tetrazol-5-yl)-phenoxy]-ethyl}-2-(2,6-dimethoxy-pyridin-3-yl)-5,6-difluoro-1H-benzoimidazole] to `Cc1cc(C(=O)O)cc(C)c1OCC(C1CCCCC1)n1c(-c2ccc(Cl)cc2)nc2ccccc21` (single isomer, unassigned; (-)) [Example 106, (−)-4-{2-[2-(4-Chloro-phenyl)-benzoimidazol-1-yl]-2-cyclohexyl-ethoxy}-3,5-dimethyl-benzoic acid], the IC50 rises from 0.2 nM to 100 nM (500-fold). The first is the more potent here.

First: O=C(O)c1cc(F)c(OCC(C2CCCCC2)n2c(-c3ccc(Cl)cc3)nc3ccccc32)c(Cl)c1 (single isomer, unassigned; (-)) [Example 109, (−)-3-Chloro-4-{2-[2-(4-chloro-phenyl)-benzoimidazol-1-yl]-2-cyclohexyl-ethoxy}-5-fluoro-benzoic acid]
Second: O=C(O)C1(Oc2ccc(OCC(C3CCCCC3)n3c(-c4ccc(Cl)cc4)nc4cc(F)c(F)cc43)cc2)CCC1 (single isomer, unassigned; (-)) [Example 119, (−)-1-(4-{2-[2-(4-Chloro-phenyl)-5,6-difluoro-benzoimidazol-1-yl]-2-cyclohexyl-ethoxy}-phenoxy)-cyclobutanecarboxylic acid]
The IC50 of the first is 3.7-fold lower: 30 nM for the first, 110 nM for the second. The first is the more potent here.
